Patent US20210255193A1, “LYSINE REACTIVE PROBES AND USES THEREOF” (The Scripps Research Institute, priority 2017, published 2021)

Key:
Type in all cases: biochemical
[1] = biological target: T1, PFKP (Homo sapiens, UniProt Q01813); experiment: PFKP functional assay; settings: WT-PFKP
T1 construct: Flag; expressed in transfected cells; host or cells: HEK 293T, transient transfection, soluble lysate; cDNA clone 5180268 (Dharmacon)
T1 sequence (Q01813 1-784): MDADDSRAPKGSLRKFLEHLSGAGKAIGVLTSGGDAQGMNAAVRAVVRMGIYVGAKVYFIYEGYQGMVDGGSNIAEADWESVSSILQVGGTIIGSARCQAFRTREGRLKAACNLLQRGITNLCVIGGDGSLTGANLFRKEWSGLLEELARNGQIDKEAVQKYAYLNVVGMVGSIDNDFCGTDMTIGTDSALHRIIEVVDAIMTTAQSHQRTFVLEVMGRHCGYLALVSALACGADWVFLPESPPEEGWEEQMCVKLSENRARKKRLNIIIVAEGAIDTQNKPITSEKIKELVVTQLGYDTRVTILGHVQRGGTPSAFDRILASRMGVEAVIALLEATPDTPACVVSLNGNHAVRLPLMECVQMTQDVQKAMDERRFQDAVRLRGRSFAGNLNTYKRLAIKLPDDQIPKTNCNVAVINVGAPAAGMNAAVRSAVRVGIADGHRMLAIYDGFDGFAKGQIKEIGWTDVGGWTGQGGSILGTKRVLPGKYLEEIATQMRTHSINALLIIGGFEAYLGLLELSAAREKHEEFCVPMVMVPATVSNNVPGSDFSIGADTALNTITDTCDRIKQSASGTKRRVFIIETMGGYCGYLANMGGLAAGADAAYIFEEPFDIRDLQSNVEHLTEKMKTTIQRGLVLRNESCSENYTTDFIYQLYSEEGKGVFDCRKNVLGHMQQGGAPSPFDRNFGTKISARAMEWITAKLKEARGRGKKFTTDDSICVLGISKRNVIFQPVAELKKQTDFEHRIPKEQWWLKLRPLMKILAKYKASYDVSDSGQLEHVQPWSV
Description: (§1) PFKP functional assay. For inhibitor experiments, 50 μl of soluble proteome (initial total protein concentration: 1 mg ml^−1) from HEK 293T cells expressing PFKP (WT or K688R mutant) or mock transfected cells (empty vector; negative control) were incubated with 1 μl 50× of the compound in DMSO or DMSO for the positive or negative control for 1 h at room temperature. Lysates were diluted 40× with dilution buffer (PBS containing 0.2 mg ml^−1 BSA and 5 mM MgCl2) and 40 μl were added into a clear bottom 384 well plate. 10 μl of a mixture of 3.5 μl PBS, 2.5 μl fructose-6-phosphate (100 mM), 1 μl NADH (20 mM), 1 μl ATP (50 mM), 1 μl aldolase (50 U ml^−1) and 1 μl GDH/TPI (500 U ml^−1 TPI, 50 U ml^−1 GDH) were added to start the reaction. The absorbance of NADH was measured at 340 nm every minute for 30 min.
(§2) Calculation of relative activity or percent inhibition. For PNPO, PFKP, NUDT2 and G6PD, the slope of the linear regression of the linear portion of the absorbance or fluorescence over time was used as measure their activity. Apparent activity was calculated relative to the WT. Percent inhibition was calculated relative to the positive and negative control and used to calculate IC50 values by nonlinear regression analysis from a dose-response curve generated using GraphPad Prism 7.

[2] = biological target: T2, PFKP (Homo sapiens, UniProt Q01813, K688R); experiment: PFKP functional assay; settings: K688R mutant
T2 construct: Flag; expressed in transfected cells; host or cells: HEK 293T, transient transfection, soluble lysate; cDNA clone 5180268 (Dharmacon)
Description: as §1, §2

[3] = biological target: T3, NUDT2 (Homo sapiens, UniProt P50583); experiment: NUDT2 functional assay; settings: substrate assay
T3 construct: expressed in transfected cells; host or cells: HEK 293T, transient transfection, soluble lysate; synthesized gene (IDT)
Description: NUDT2 functional assay. NUDT2 activity was measured with a published assay using a fluorogenic substrate. For inhibitor experiments, 50 μl of soluble proteome (initial total protein concentration: 1 mg ml^−1) from HEK 293T cells expressing NUDT2 (WT or K89R mutant) or mock transfected cells (empty vector; negative control) were incubated with 1 μl 50× of the compound in DMSO or DMSO for the positive or negative control (lysate transfected with empty vector) for 1 h at room temperature. Lysates were diluted 4000× with dilution buffer and 64 μl were added into a black 384 well plate. 16 μl of fluorogenic substrate (5 μM) were added to start the reaction. The fluorescence intensity with excitation at 530 nm and emission at 563 nm was measured every minute for 30 min.
as §2

T3 sequence (P50583 whole entry): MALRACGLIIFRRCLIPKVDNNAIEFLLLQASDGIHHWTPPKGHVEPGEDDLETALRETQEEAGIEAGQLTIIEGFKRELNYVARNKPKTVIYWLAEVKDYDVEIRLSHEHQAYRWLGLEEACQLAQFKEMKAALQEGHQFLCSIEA
T2 sequence (Q01813 whole entry K688R): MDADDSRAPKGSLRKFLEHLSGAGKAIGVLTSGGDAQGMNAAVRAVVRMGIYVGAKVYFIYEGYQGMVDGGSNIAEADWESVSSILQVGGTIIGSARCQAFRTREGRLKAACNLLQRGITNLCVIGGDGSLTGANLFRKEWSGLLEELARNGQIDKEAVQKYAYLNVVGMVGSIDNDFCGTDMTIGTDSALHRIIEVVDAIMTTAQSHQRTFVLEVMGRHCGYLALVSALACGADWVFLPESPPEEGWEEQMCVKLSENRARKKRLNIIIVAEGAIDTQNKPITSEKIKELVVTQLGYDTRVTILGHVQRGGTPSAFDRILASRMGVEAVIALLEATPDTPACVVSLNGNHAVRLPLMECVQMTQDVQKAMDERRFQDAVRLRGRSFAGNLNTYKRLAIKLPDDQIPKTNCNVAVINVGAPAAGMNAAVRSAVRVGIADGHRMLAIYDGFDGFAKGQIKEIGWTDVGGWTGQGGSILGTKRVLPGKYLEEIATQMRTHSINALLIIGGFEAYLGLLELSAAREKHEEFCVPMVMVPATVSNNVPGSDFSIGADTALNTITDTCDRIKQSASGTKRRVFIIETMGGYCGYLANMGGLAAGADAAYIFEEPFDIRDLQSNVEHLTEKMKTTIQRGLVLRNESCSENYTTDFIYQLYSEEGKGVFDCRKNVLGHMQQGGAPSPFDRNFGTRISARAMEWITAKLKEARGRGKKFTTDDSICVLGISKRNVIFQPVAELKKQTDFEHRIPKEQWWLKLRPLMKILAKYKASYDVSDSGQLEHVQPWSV

| IC50 ([1]; enzyme-coupled assay, read-out: apparent IC50, inhibition of PFKP activity) [nM] | maximal inhibitory effect, reduction in substrate turnover ([1]; plateau) | inhibition of K688R-PFKP mutant activity [2] | IC50, inhibition of NUDT2 activity [3] | Compound |
| --- | --- | --- | --- | --- |
| 2900 | about 80% | not the K688R-PFKP mutant | – | O=C(Oc1c(F)c(F)c(F)c(F)c1F)C(c1ccccc1)c1ccccc1 [fragment 20, Pentafluorophenyl 2,2-diphenylacetate] |
| – | – | – | equivalent IC50 value | COC(=O)NC(=NC(=O)OCC1c2ccccc2-c2ccccc21)n1cccn1 [fragment 49, N-Methoxycarbonyl-N′-9-fluorenylmethoxycarbonyl-pyrazole-1-carboxamidine] |
